Source: patent publication US12616751B2, “Photosensitizing antibody-fluorophore conjugates” (The USA, as represented by the Secretary, Department of …, priority 2010, dated 2026)

Assays:
[1] = tested on: A431 tumor; test: In vivo fluorescence imaging of Pan-IR700 in A431 tumors; parameters: species or system mice
Description: To confirm antigen specific localization of Pan-IR700, 1×10^6 of 3T3/HER2 cells (HER1 negative) were injected subcutaneously in the right dorsum at the same time of A431 cells injection. […] Regions of interest (ROI) for both tumor and background were placed for equivalent sized areas containing the same number of pixels. Tumor to background ratio (TBR) was calculated using the following formula: TBR=((mean tumor intensity)−(mean background intensity))/((mean non-tumor intensity)−(mean background intensity)).

[2] = tested on: A431 (HER1+) tumors; test: In vivo PIT efficacy in A431 tumors
Description: To determine the effect of Pan-IR700 or carrier alone followed by PIT, the following methods were used. […] Four days after A431 cell injection as described above, tumor volume reaching around 40 mm^3 were selected for the study. […] To test a short-term toxicity, 300 μg of Pan-IR700 was repeatedly administrated intravenously for non-tumor-bearing mice, twice a week, for 4 weeks.

[3] = tested on: A431 cells; test: Cell pellet FLT studies; type: cell-based
Description: Reagents. […] All other chemicals used were of reagent grade. […] Then the mixture was purified with a Sephadex G50 column (PD-10; GE Healthcare). The protein concentrations were determined with Coomassie Plus protein assay kit (Pierce Biotechnology) by measuring light absorption at 595 nm (8453 Value System; Agilent Technologies). […] The number of IR700 per antibody was approximately 4 for the 1:4.5 reaction conditions. The addition of 0.4% SDS to the sample dissociated the fluorophores from each other, effectively causing dequenching. Quenching efficiency (QE) for a particular conjugation is defined as the fluorescence intensity with SDS divided by fluorescence intensity without SDS. […] Pan-1R700 was kept at 4° C. in the refrigerator as a stock solution. Fluorescence lifetime measurements. FLT experiments were performed with the eXplore OptixTm-MX2 system (ART Advanced Research Technologies, Inc.) (Hutchinson et al., Biophys J 68:1574-82, 1995; Ma et al., Appl Opt 46:1650-7, 2007). […] Lifetime values and lifetime mapping were calculated to fit fluorescence temporal point-spread functions (TPSFs) as single-exponential models with the Fit TPSF tool. […] Power densities were measured with an optical power meter (PM 100, Thorlabs). […] The fluorescence intensities and lifetimes of each sample were determined using the Optix MX2 system at room temperature within a 1.7 ml centrifuge tube. To investigate the effect of PIT using Pan-1R700, the FLT of each sample at the concentration of 50 pg/mL was measured after irradiating the samples at a PIT dose of 0, 2, 4, 8, 15, 30 J/cm2. […] The fluorescence intensities and lifetimes of each sample were then obtained. […] After that, these pellets were gently washed with PBS×1 and fluorescence intensity and lifetime images were obtained. To detect the antigen specific localization of IR700 and to confirm the morphological changes of A431 cells before and after PIT, fluorescence microscopy was performed using Olympus BX61 microscope (Olympus America) equipped with the following filters: a 590-650 nm excitation filter, a 665-740 nm band pass emission filter. […]

Q: Which results are given for “Pan-IR700: Panitumumab (anti-human EGFR IgG2 MAb) conjugated to IR700; about 3 to 4 IR700 per antibody”?
A: fluorescence intensity of tumor, 300 μg versus 50 μg injection ([1]; 1 day after injection): more than 3 times; TBR, 300 μg versus 50 μg injection ([1]; mouse, in vivo): lower; fluorescence intensity in tumor over time ([1]; mouse, in vivo): decreased gradually over days; other localization of IR700 (biodistribution) ([1]; mouse, in vivo): no other specific localization of IR700 except for bladder accumulation on day 1; tumor localization (in vivo fluorescence imaging) ([1]; mouse, in vivo): localized to the A431 tumor; tumor shrinkage of irradiated tumor ([2]; 300 μg, NIR light on day 1): Tumor shrinkage was confirmed on day 7; survival time ([2]; 30 J cm^−2): significant increases in survival time; tumor growth ([2]; 30 J cm^−2, day 3, 7, 10, 14 and 17 after treatment): significant tumor growth inhibition; lethal side effects ([2]; during or after the treatment): no lethal side effects were found; antitumor activity, 50 μg versus 300 μg ([2]; following irradiation): less antitumor activity; pathological analysis of tumor ([2]; four days following PIT): only scant viable A431 tumor cells were present; day at which PIT treated tumors began to shrink ([2]; mouse, in vivo): 2 days; tissue edema ([2]; mouse, in vivo): tissue edema developed superficially; shortening of FLT ([3]; 8 J/cm^2 versus before light exposure): 9.1%; shortening of FLT ([3]; 15 J/cm^2 versus before light exposure): 10.1%; shortening of FLT ([3]; 30 J/cm^2 versus before light exposure): 13.1%
